Source: US20160367542A1, “NICOTINAMIDE DERIVATE IN THE TREATMENT OF ACUTE CORONARY SYNDROME” (GlaxoSmithKline LLC, priority 2012, published 2016)
Values after ≈ are worked out from the molar mass of the structure shown.

What was measured:
[1] = tested on: in-vivo macrophage activity in the carotid arteries and aorta of subjects with established atherosclerosis; assay: In-vivo macrophage activity study, FDG-PET/CT imaging; set-up: species or system human; conditions: 84 days
Source text: Macrophage activity and presence are critical features to the vulnerability of plaque in the vasculature. The pivotal nature of p38 MAPK in signaling stress, and its presence in macrophages can be monitored by labeling glucose (fluorodeoxyglucose), an otherwise key nutrient for macrophage activity, and observing its uptake in macrophages using […]. […] The primary objective was to measure in-vivo macrophage activity, by fluorodeoxyglucose (FDG) positron emission tomography (PET)/computed tomography (CT) imaging, in carotid arteries and aorta following a 12-week treatment with losmapimod (7.5 mg once daily [QD] and 7.5 mg twice daily [BID]), in the setting of chronic statin therapy, as compared to placebo. Secondary objectives included safety and tolerability of 12 weeks of dosing with losmapimod (7.5 mg QD or 7.5 mg BID). Inflammatory biomarkers and the effect of losmapimod 7.5 mg QD vs 7.5 mg BID on in-vivo macrophage activity, as assessed by FDG-PET/CT imaging. Ninety-nine patients with vascular inflammation on statins were randomised to losmapimod 7.5 mg once daily (QD), twice daily (BID) or placebo for 84 days. Vascular inflammation was assessed by PET-CT imaging of the carotid arteries and aorta using ^18fluorodeoxyglucose (FDG); the artery with the highest average maximum tissue-to-background ratio (TBR) at baseline (TBR>1.6). […]

[2] = tested on: patients with acute coronary syndrome (non-ST elevation); assay: Recurrent infarction, infarct size and cardiac function in subjects with myocardial infarction (Example 4 study); assay type: in vivo, human
Method: (§1) In a randomised, double-blind, placebo controlled study, patients (n=approximately 500) who were admitted to a hospital with the diagnosis of acute coronary syndrome (specifically with non-ST elevation EKG findings upon entry) were provided an oral dose of losmapimod (7.5 mg or 15 mg and thereafter followed by 7.5 mg every 12 hours) or placebo for a period of 3 months.

CRP and IL6 levels = assay: Inflammatory markers in subjects with myocardial infarction (Example 4 study); assay type: in vivo, human; conditions: oral 7.5 mg or 15 mg then 7.5 mg every 12 hours; average 4.5 day initial hospital stay, setting of stent placement
Method: as §1

[3] = tested on: hypercholerolesteric patients; conditions: Circulation. 2011;123:515-523; cited from earlier work
[4] = tested on: high sensitivity C-reactive protein; assay: Inflammatory biomarkers in the FDG-PET/CT study; assay type: in vivo, human; conditions: 7.5 mg BID versus placebo; 95% CI −46, −5; p=0.023
Method: The primary objective was to measure in-vivo macrophage activity, by fluorodeoxyglucose (FDG) positron emission tomography (PET)/computed tomography (CT) imaging, in carotid arteries and aorta following a 12-week treatment with losmapimod (7.5 mg once daily [QD] and 7.5 mg twice daily [BID]), in the setting of chronic statin therapy, as compared to placebo. Secondary objectives included safety and tolerability of 12 weeks of dosing with losmapimod (7.5 mg QD or 7.5 mg BID). Inflammatory biomarkers and the effect of losmapimod 7.5 mg QD vs 7.5 mg BID on in-vivo macrophage activity, as assessed by FDG-PET/CT imaging. Ninety-nine patients with vascular inflammation on statins were randomised to losmapimod 7.5 mg once daily (QD), twice daily (BID) or placebo for 84 days. Vascular inflammation was assessed by PET-CT imaging of the carotid arteries and aorta using ^18fluorodeoxyglucose (FDG); the artery with the highest average maximum tissue-to-background ratio (TBR) at baseline (TBR>1.6). 92% of the subjects were white, 86% male, the mean age was 63.8 years (SD 6.13). 72% were current or ex-smokers. […] All subjects were on a stable dose of statin for at least 3 months prior to the first dose and continued on this dose of statin throughout the study.

physchem = assay type: physicochemical
Source text: There is therefore a need for a liquid formulation of said compound that is suitable for this mode of administration which solves this technical problem.

Cc1c(F)cc(C(=O)NC2CC2)cc1-c1ccc(C(=O)NCC(C)(C)C)cn1 [losmapimod, 6-(5-cyclopropylcarbamoyl-3-fluoro-2-methyl-phenyl)-N-(2,2-dimethylpropyl)-nicotinamide]
proportion of active slices (TBR≧1.6), change from baseline ([1]; 7.5 mg BID, placebo −6.1%, p=0.002, exploratory analysis): −9.8% | change from baseline to day 84 in average maximum TBR (primary end point) ([1]; losmapimod versus placebo, patients on statins): not significantly different | size of the infarct by magnetic resonance image, lower versus placebo ([2]; MRI 4-5 days after the index infarct, smaller cohort n=approximately 90): > 20% | BNP levels (surrogate for cardiac function), reduction ([2]; after 12 weeks of treatment): > 20% | size of the index infarct by release of cardiac muscle enzymes ([2]; enzymes measured every 8 hours, treated versus placebo group): unchanged | three month MR imaging of cardiac function and dimensions ([2]; three months of treatment): improved function and smaller overall cardiac dimensions | number of recurrent myocardial infarctions (or episodes of ACS), lower with treatment compared to placebo ([2]; within the first few months beyond the index infarct, not statistically significant): over 15% | CRP level, lower with treatment compared to placebo (CRP and IL6 levels): > 50% | IL6 level, lower with treatment compared to placebo (CRP and IL6 levels): > 50% | nitric oxide mediated vasodilatation [3]: improves | high sensitivity C-reactive protein, reduction versus placebo [4]: −28% | solubility (physchem): ~5 µg/mL (≈ 13 µM)
